The compounds below were run against T1, Replicase polyprotein 1ab (Severe acute respiratory syndrome coronavirus 2, UniProt P0DTD1) (assay: Binding affinity to SARS-CoV-2 nsp14 assessed as inhibition constant). Settings: not given.

SMILES | Ki
Nc1ncnc2c1ncn2[C@@H]1O[C@H](CSCCCCNCc2cccc(-c3ccc(Cl)cc3)c2)[C@@H](O)[C@H]1O | 6000 nM
CC(C)N(CCCNC(=O)Nc1ccc(C(C)(C)C)cc1)C[C@H]1O[C@@H](n2cc(Br)c3c(N)ncnc32)[C@H](O)[C@@H]1O | 8000 nM

These compounds were tested against T1, Replicase polyprotein 1ab (assay: Binding affinity to SARS-CoV-2 nsp14 assessed as dissociation constant). Settings: not given.

SMILES | Kd
Nc1ncnc2c1c(C#Cc1cnc3ccccc3c1)cn2[C@@H]1O[C@H](CSCC[C@H](N)C(=O)O)[C@@H](O)[C@H]1O | 25.2 nM
NC[C@@H](CC[C@H](N)C(=O)O)C[C@H]1O[C@@H](n2cnc3c(N)ncnc32)[C@H](O)[C@@H]1O | 1.6 nM

Each compound was assayed against Replicase polyprotein 1ab (assay: Inhibition of N-terminal 6His-tagged SARS-CoV nsp14 extracted from Escherichia coli). Settings: not given.

SMILES | IC50
Cc1cc(=O)oc2cc(NC(=O)[C@H]3O[C@@H](n4cc(C#Cc5cncnc5)c5c(N)ncnc54)[C@H](O)[C@@H]3O)ccc12 | 31000 nM
Nc1ncnc2c1ncn2[C@@H]1O[C@H](CSCc2cc(C(=O)O)cc(-c3ccccc3)c2)[C@@H](O)[C@H]1O | 580 nM
Nc1ncnc2c1c(C#Cc1cnc3ccccc3c1)cn2[C@@H]1O[C@H](CSCC[C@H](N)C(=O)O)[C@@H](O)[C@H]1O | 3 nM
COc1ccc(S(=O)(=O)N(C)C[C@H]2O[C@@H](n3cc(C#Cc4cnc5ccccc5c4)c4c(N)ncnc43)[C@H](O)[C@@H]2O)cc1C#N | 720 nM
Nc1ncnc2c1ncn2[C@@H]1O[C@H](CN(CCO[C@@H]2[C@H](O)[C@@H](CO)O[C@H]2n2cnc3c(N)ncnc32)S(=O)(=O)c2ccc(Cl)c([N+](=O)[O-])c2)[C@@H](O)[C@H]1O | 600 nM
NC[C@@H](CC[C@H](N)C(=O)O)C[C@H]1O[C@@H](n2cnc3c(N)ncnc32)[C@H](O)[C@@H]1O | 1100 nM
Nc1ncnc2c1ncn2[C@@H]1O[C@H](CNS(=O)(=O)c2ccc3ccccc3c2)[C@@H](O)[C@H]1O | 93000 nM
CC1=C(C)C(=O)C(C(C)(C)CC(=O)N(CCCCSC[C@H]2O[C@@H](n3cnc4c(N)ncnc43)[C@H](O)[C@@H]2O)Cc2cccc(-c3ccc(Cl)cc3)c2)=C(C)C1=O | 1100 nM
Nc1ncnc2c1ncn2[C@@H]1O[C@H](CSCC[C@H](N)C(=O)O)[C@@H](O)[C@H]1O [S-ADENOSYLHOMOCYSTEINE] | 16000 nM

These compounds were tested on SARS-CoV-2 (assay: Antiviral activity against SARS-CoV-2 infected in African green monkey Vero E6 cells assessed as inhibition of viral growth incubated for 72 hrs by plaque assay). Settings: Severe acute respiratory syndrome coronavirus 2, Vero C1008, 72 h.
Assay type: functional, organism-based

SMILES | EC50
CC(=O)c1cc(O)c2ccccc2c1O | 8.5 nM
N#Cc1ccc(N2N=C3c4ccc(C(=O)O)cc4CC[C@@H]3[C@@H]2C2CCCC2)cc1Cl [PF-03882845] | 11 nM
CCN(C[C@H]1O[C@@H](n2cnc3c(N)ncnc32)[C@H](O)[C@@H]1O)S(=O)(=O)c1ccc(Cl)c(C#N)c1 | 1.9 nM
O=c1c2ccccc2[se]n1-c1ccccc1 [EBSELEN] | 34 nM
O=c1nc2n(CCO)c3ccccc3nc-2c(=O)n1-c1ccccc1 | 5.7 nM
O=C(O)C1=CC(=C(c2ccc(O)c(C(=O)O)c2)c2ccc(O)c(C(=O)O)c2)C=CC1=O [AURINTRICARBOXYLIC ACID] | 0.47 nM

From ChEMBL document CHEMBL6087396, “Perspective for Drug Discovery Targeting SARS Coronavirus Methyltransferases: Function, Structure and Inhibition” (J Med Chem, 2024)
